According to ChEMBL document CHEMBL5523716, “Discovery of novel EGFR-PROTACs capable of degradation of multiple EGFR-mutated proteins” (Eur J Med Chem, 2024):
Active and inactive are the calls of the source. No cut-off for these calls is given here.

Experiments:
[1] = system: von Hippel-Lindau disease tumor suppressor/Epidermal growth factor receptor (Homo sapiens), P00533+P40337 [L858R,T790M,C797S]; assay: PROTAC activity at VHL/EGFR L858R/T790M/C797S mutant in human H1975-TM cells assessed as induction of EGFR degradation at 100 nM preincubated with MLN-4924 for 6 hrs followed by compound treatment for 48 hrs by Western blot analysis; format: cell-based
[2] = system: von Hippel-Lindau disease tumor suppressor/Epidermal growth factor receptor (Homo sapiens), P00533+P40337 [L858R,T790M]; assay: PROTAC activity at VHL/EGFR L858R/T790M mutant in human NCI-H1975 cells assessed as induction of EGFR degradation at 100 nM preincubated with MLN-4924 for 6 hrs followed by compound treatment for 48 hrs by Western blot analysis; format: cell-based
[3] = Tmax in SPF ICR mouse at 5 mg/kg,ip measured upto 24 hrs by LC-MS/MS analysis; format: ADME, organism-based; settings: in vivo
[4] = system: von Hippel-Lindau disease tumor suppressor/Epidermal growth factor receptor (Homo sapiens), P00533+P40337 [L858R,T790M]; assay: PROTAC activity at VHL/EGFR L858R/T790M mutant in human NCI-H1975 cells assessed as induction of EGFR degradation at 2 uM by Western blot analysis; format: cell-based; settings: TDE = time-dependent effect
[5] = Metabolic stability in monkey liver microsomes assessed as elimination rate constant at 1 uM incubated upto 60 mins in presence of NADPH by LC-MS/MS analysis; format: ADME, Macaca mulatta, Microsome; settings: rhesus monkey
[6] = system: von Hippel-Lindau disease tumor suppressor/Epidermal growth factor receptor (Homo sapiens), P00533+P40337 [L858R,T790M,C797S]; assay: PROTAC activity at VHL/EGFR L858R/T790M/C797S mutant in human H1975-TM cells assessed as downregulation of ERK phosphorylation incubated for 48 hrs by Western blot analysis; format: cell-based
[7] = Metabolic stability in rat liver microsomes assessed as intrinsic clearance at 1 uM incubated upto 60 mins in presence of NADPH by LC-MS/MS analysis; format: ADME, Microsome; settings: read-out: CLH
[8] = system: von Hippel-Lindau disease tumor suppressor/Epidermal growth factor receptor (Homo sapiens), P00533+P40337 [UNDEFINED MUTATION]; assay: PROTAC activity at VHL/EGFR Del19 mutant in human HCC827 cells assessed as downregulation of AKT phosphorylation incubated for 72 hrs by Western blot analysis; format: cell-based
[9] = system: NCI-H1975; assay: Antitumor activity against human NCI-H1975 cells xenografted in BALB/c mouse assessed as tumor growth inhibition at 5 mg/kg,ip once daily for 22 days relative to control; format: functional; settings: NCI-H1975, 528 h, time 22 day, read-out: TGI
[10] = Metabolic stability in mouse liver microsomes assessed as intrinsic clearance at 1 uM incubated upto 60 mins in presence of NADPH by LC-MS/MS analysis; format: ADME, Microsome; settings: read-out: CLH
[11] = system: von Hippel-Lindau disease tumor suppressor/Epidermal growth factor receptor (Homo sapiens), P00533+P40337 [UNDEFINED MUTATION]; assay: PROTAC activity at VHL/EGFR Del19 mutant in human HCC827 cells assessed as downregulation of EGFR phosphorylation incubated for 72 hrs by Western blot analysis; format: cell-based
[12] = molecular target: von Hippel-Lindau disease tumor suppressor/Epidermal growth factor receptor (Homo sapiens, UniProt P00533+P40337); assay: PROTAC activity at VHL/EGFR Del19 mutant in human HCC827 cells assessed as induction of EGFR degradation incubated for 72 hrs by Western blot analysis; format: cell-based
[13] = system: H1975-TM; assay: Antitumor activity against human H1975-TM cells xenografted in BALB/c mouse assessed as increase in EGFR degradation in tumor at 5 to 20 mg/kg,ip once daily for 14 days by Western blot analysis; format: functional, organism-based; settings: dose 5-20 mg/kg, time 14.0 day
[14] = molecular target: von Hippel-Lindau disease tumor suppressor/Epidermal growth factor receptor (Homo sapiens, UniProt P00533+P40337, T790M/C797S/L858R); assay: PROTAC activity at VHL/EGFR L858R/T790M/C797S mutant in human H1975-TM cells assessed as induction of EGFR degradation incubated for 48 hrs by Western blot analysis; format: cell-based
[15] = system: H1975-TM; assay: Antitumor activity against human H1975-TM cells xenografted in BALB/c mouse assessed as downregulation of ERK phosphorylation in tumor at 5 to 20 mg/kg,ip once daily for 14 days by Western blot analysis; format: functional, organism-based; settings: dose 5-20 mg/kg, time 14.0 day
[16] = system: von Hippel-Lindau disease tumor suppressor/Epidermal growth factor receptor (Homo sapiens), P00533+P40337 [L858R,T790M,C797S]; assay: PROTAC activity at VHL/EGFR L858R/T790M/C797S mutant in human H1975-TM cells assessed as induction of EGFR degradation at 2.5 uM Western blot analysis; format: cell-based; settings: TDE = time-dependent effect
[17] = Half life in SPF ICR mouse at 2 mg/kg,iv measured upto 24 hrs by LC-MS/MS analysis; format: ADME, organism-based; settings: in vivo

## CCN(CC)C/C=C/C(=O)Nc1cc2c(Nc3ccc(F)c(Cl)c3)ncnc2cc1OCc1cn(CCCCCCCC(=O)N[C@H](C(=O)N2C[C@H](O)C[C@H]2C(=O)N[C@H](C)c2ccc(-c3scnc3C)cc2)C(C)(C)C)nn1
[1]
  Activity: inactive
[2]
  Activity: inactive
[3]
  Tmax: 2 h
[4]
  Activity: Tde
[5]
  k el at 1 h, 1 µM: 0.0003 s⁻¹
[6]
  Activity: Dose-Dependent Effect
[7]
  microsomal CLint at 1 µM: 7.4 µL/min/mg
[8]
  Activity: Dose-Dependent Effect
[9]
  inhibition in vivo at 5 mg/kg: 56%
[10]
  microsomal CLint at 1 µM: 11.8 µL/min/mg
[11]
  Activity: Dose-Dependent Effect
[12]
  DC50: 17.9 nM
[13]
  Activity: Active
[14]
  DC50: 630 nM
[15]
  Activity: Active
[16]
  Activity: Tde
[17]
  half-life: 1.67 h
